For 22 compounds, IC50 results are on record in US20230151003A1, “COMPOUNDS AND METHODS OF USE” (Exelixis, Inc., priority 2020, published 2023).

Assay [1] deals with Met (Homo sapiens, UniProt P08581). As to the kind of experiment: Met autophosphorylation ELISA in PC-3 cells. It counts as cell-based. Details: endogenous in cells; host or cells: PC-3 prostate cancer cells (ATCC #CRL-1435). To be noted: Table 3 Cellular Activities, HGF-stimulated, phospho-Met ELISA, read-out: c-Met IC50. Summed up:
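Serum-starved (3 h) PC-3 cells pre-incubated 1 h with compound (8-point dose curve, 0.3% DMSO), then stimulated with 100 ng/mL recombinant human HGF for 10 min. Lysate phospho-Met (panTyr) measured by sandwich ELISA; IC50 from 4-parameter logistic fit, normalised to DMSO (100%) and reference-inhibitor (0%) controls.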

In assay [2] the target is T1, AXL (Homo sapiens, UniProt P30530).
T1 construct: endogenous in cells; host or cells: A-172 glioblastoma cells (ATCC #CRL-1620)
T1 sequence (P30530 26-894): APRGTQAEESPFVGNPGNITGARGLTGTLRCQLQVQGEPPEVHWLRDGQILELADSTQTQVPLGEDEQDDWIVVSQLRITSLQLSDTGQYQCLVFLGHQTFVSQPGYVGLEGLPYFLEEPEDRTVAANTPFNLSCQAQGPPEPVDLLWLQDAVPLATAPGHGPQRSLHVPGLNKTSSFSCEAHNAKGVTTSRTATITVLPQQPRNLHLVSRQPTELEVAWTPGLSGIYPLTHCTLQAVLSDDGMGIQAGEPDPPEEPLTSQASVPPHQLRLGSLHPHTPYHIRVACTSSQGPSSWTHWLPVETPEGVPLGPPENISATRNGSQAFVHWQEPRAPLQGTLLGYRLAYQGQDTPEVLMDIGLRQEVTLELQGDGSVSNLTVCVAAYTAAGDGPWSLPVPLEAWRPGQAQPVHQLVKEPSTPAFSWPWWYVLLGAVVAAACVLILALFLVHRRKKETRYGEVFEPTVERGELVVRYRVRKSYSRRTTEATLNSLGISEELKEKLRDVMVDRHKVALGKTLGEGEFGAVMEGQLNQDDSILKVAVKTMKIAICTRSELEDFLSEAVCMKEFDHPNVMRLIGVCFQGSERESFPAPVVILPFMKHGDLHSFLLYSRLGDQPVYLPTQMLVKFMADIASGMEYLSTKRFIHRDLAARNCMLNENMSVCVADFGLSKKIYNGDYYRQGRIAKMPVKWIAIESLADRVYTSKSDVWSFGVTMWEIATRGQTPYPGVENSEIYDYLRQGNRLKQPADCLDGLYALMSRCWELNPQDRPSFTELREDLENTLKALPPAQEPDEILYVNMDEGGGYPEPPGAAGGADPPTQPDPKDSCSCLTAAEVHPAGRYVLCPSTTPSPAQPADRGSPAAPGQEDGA
Briefly: AXL autophosphorylation ELISA in A-172 cells. It counts as cell-based. To be noted: Table 3 Cellular Activities, Gas6-stimulated, phospho-AXL ELISA. Summed up:
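A-172 glioblastoma cells serum-starved 24 h, treated 1 h with compounds (8-point dose curve, 0.3% DMSO), then stimulated with 1 μg/mL Gas6 for 15 min. Lysate phospho-AXL quantified by ELISA against a standard; IC50 from 4-parameter logistic fit, normalised to DMSO and reference-inhibitor controls.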

Chain of Met (P08581 25-1390): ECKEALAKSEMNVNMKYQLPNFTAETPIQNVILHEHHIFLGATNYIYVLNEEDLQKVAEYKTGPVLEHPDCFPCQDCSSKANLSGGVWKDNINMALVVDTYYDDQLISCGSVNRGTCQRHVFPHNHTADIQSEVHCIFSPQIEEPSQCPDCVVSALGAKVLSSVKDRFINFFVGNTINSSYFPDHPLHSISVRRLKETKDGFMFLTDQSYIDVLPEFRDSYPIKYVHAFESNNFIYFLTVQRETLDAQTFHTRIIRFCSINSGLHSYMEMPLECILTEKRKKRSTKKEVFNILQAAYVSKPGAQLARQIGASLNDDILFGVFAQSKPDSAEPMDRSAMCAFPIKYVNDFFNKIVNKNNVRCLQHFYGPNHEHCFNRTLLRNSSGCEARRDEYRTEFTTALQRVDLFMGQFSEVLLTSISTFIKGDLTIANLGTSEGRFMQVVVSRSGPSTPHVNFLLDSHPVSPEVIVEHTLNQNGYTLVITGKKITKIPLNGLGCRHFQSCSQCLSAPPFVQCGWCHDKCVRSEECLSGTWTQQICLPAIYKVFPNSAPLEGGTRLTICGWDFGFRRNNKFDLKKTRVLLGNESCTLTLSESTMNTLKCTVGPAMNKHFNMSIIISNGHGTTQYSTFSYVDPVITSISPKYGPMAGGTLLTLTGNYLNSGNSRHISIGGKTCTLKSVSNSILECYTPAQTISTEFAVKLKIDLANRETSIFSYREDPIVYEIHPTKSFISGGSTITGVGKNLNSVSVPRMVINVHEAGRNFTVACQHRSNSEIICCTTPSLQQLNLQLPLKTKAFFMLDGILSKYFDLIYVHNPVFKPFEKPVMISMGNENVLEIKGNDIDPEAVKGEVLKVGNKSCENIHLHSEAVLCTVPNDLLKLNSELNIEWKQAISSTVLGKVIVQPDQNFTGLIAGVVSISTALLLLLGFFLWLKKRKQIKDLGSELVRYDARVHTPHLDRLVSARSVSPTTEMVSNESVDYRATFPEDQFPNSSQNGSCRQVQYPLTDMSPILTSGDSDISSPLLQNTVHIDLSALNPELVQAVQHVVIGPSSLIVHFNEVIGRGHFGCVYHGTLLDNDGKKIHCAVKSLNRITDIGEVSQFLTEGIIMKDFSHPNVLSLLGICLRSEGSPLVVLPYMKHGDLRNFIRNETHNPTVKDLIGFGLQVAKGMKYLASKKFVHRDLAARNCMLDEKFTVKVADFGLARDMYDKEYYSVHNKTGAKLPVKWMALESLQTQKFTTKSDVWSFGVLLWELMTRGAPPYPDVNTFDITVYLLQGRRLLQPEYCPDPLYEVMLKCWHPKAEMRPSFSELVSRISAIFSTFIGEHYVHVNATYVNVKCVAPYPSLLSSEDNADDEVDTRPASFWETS

Consider `COc1cc2nccc(Oc3ccc(NC(=O)c4cnc(C)c(-c5cscn5)c4O)cc3F)c2nc1OC` [Compound 142, N-[4-[(6,7-Dimethoxy-1,5-naphthyridin-4-yl)oxy]-3-fluorophenyl]-4-hydroxy-6-methyl-5-(1,3-thiazol-4-yl)pyridine-3-carboxamide], for which the IC50 in assay [1] and in assay [2] was at most 100 nM throughout.

As to `COc1cc2nccc(Oc3ccc(NC(=O)c4c(C)ncc(-c5sccc5C)c4O)cc3F)c2nc1OC` [Compound 126, N-[4-[(6,7-Dimethoxy-1,5-naphthyridin-4-yl)oxy]-3-fluorophenyl]-4-hydroxy-2-methyl-5-(3-methylthiophen-2-yl)pyridine-3-carboxamide], the IC50 in assay [1] and in assay [2] was at most 100 nM each time.

Consider `COc1cc2nccc(Oc3ccc(NC(=O)c4cnc(C)c(-c5ccc(C)s5)c4O)cc3F)c2nc1OC` [Compound 94, N-[4-[(6,7-Dimethoxy-1,5-naphthyridin-4-yl)oxy]-3-fluoro-phenyl]-4-hydroxy-6-methyl-5-(5-methyl-2-thienyl) pyridine-3-carboxamide], for which the IC50 in assay [1] and in assay [2] was at most 100 nM each time.

Take `COc1cnc2c(Oc3ccc(NC(=O)c4cnc(C)c(-c5cccs5)c4O)cc3F)ccnc2c1` [Compound 100, N-[3-Fluoro-4-[(7-methoxy-1,5-naphthyridin-4-yl)oxy]phenyl]-4-hydroxy-6-methyl-5-(2-thienyl)pyridine-3-carboxamide]: the IC50 in assay [1] and in assay [2] was at most 100 nM in each case.

As for `COc1cc2nccc(Oc3ccc(NC(=O)c4c(C)nc(C)c(-c5ccc(C(C)C)o5)c4O)cc3F)c2nc1OC` [Compound 148, N-[4-[(6,7-Dimethoxy-1,5-naphthyridin-4-yl)oxy]-3-fluorophenyl]-4-hydroxy-2,6-dimethyl-5-(5-propan-2-ylfuran-2-yl)pyridine-3-carboxamide], the half-maximal inhibitory concentration (IC50) in assay [1] and in assay [2] was at most 100 nM in each case.

As for `COc1cc2nccc(Oc3ccc(NC(=O)c4cn(CCF)c(C)c(-c5ccsc5)c4=O)cc3F)c2nc1OC` [Compound 332, N-[4-[(6,7-Dimethoxy-1,5-naphthyridin-4-yl)oxy]-3-fluorophenyl]-1-(2-fluoroethyl)-6-methyl-4-oxo-5-thiophen-3-ylpyridine-3-carboxamide], the half-inhibitory concentration (IC50) in assay [1] and in assay [2] was at most 100 nM in each case.

Take `COc1cnc2c(Oc3ccc(NC(=O)c4cn(CCF)c(C)c(-c5ccoc5)c4=O)cc3F)ccnc2c1` [Compound 334, 1-(2-Fluoroethyl)-N-[3-fluoro-4-[(7-methoxy-1,5-naphthyridin-4-yl)oxy]phenyl]-5-(furan-3-yl)-6-methyl-4-oxopyridine-3-carboxamide]: the IC50 in assay [1] and in assay [2] was at most 100 nM throughout.

Take `COc1cc2nccc(Oc3ccc(NC(=O)c4c(C)n(C)c(C)c(-c5cccs5)c4=O)cc3F)c2nc1OC` [Compound 168, N-[4-[(6,7-Dimethoxy-1,5-naphthyridin-4-yl)oxy]-3-fluorophenyl]-1,2,6-trimethyl-4-oxo-5-thiophen-2-ylpyridine-3-carboxamide]: the IC50 in assay [1] and in assay [2] was at most 100 nM in each case.

In the case of `COc1cc2nccc(Oc3ccc(NC(=O)c4c(C)nc(C)c(-c5cc(C)cs5)c4O)cc3F)c2nc1OC` [Compound 137, N-[4-[(6,7-Dimethoxy-1,5-naphthyridin-4-yl)oxy]-3-fluorophenyl]-4-hydroxy-2,6-dimethyl-5-(4-methylthiophen-2-yl)pyridine-3-carboxamide], the half-maximal inhibitory concentration (IC50) in assay [1] and in assay [2] was at most 100 nM throughout.

Regarding `COc1cc2nccc(Oc3ccc(NC(=O)c4cnc(C)c(-c5ccnn5C)c4O)cc3F)c2nc1OC` [Compound 104], the IC50 in assay [1] and in assay [2] was at most 100 nM in each case.

Consider `COc1cc2nccc(Oc3ccc(NC(=O)c4c(C)ncc(-c5ccco5)c4O)cc3F)c2nc1OC` [Compound 119, N-[4-[(6,7-Dimethoxy-1,5-naphthyridin-4-yl)oxy]-3-fluorophenyl]-5-(furan-2-yl)-4-hydroxy-2-methylpyridine-3-carboxamide], for which the half-inhibitory concentration (IC50) in assay [1] and in assay [2] was at most 100 nM throughout.

Consider `COc1cc2nccc(Oc3ccc(NC(=O)c4cnc(C)c(-c5ccsc5)c4O)cc3F)c2nc1OC` [Compound 93, N-[4-[(6,7-Dimethoxy-1,5-naphthyridin-4-yl)oxy]-3-fluoro-phenyl]-4-hydroxy-6-methyl-5-(3-thienyl)pyridine-3-carboxamide], for which the IC50 in assay [1] and in assay [2] was at most 100 nM each time.

As for `COc1cc2nccc(Oc3ccc(NC(=O)c4c(C)nc(C)c(-c5cc(C(F)(F)F)nn5C)c4O)cc3F)c2nc1OC` [Compound 138], the IC50 in assay [1] and in assay [2] was at most 100 nM in each case.

`COc1cc2nccc(Oc3ccc(NC(=O)c4c(C)nc(C)c(-c5cccs5)c4O)cc3F)c2nc1OC` [Compound 107]: the 50% inhibitory concentration (IC50) in assay [1] and in assay [2] was at most 100 nM throughout.

Consider `COc1ccc2nccc(Oc3ccc(NC(=O)c4cnc(C)c(-c5ccco5)c4O)cc3F)c2n1` [Compound 118, N-[3-Fluoro-4-[(6-methoxy-1,5-naphthyridin-4-yl)oxy]phenyl]-5-(furan-2-yl)-4-hydroxy-6-methylpyridine-3-carboxamide], for which the 50% inhibitory concentration (IC50) in assay [1] and in assay [2] was at most 100 nM throughout.

Turning to `COc1cc2nccc(Oc3ccc(NC(=O)c4c(C)nc(C)c(-c5ccc(C6CC6)o5)c4O)cc3F)c2nc1OC` [Compound 155B, 5-(5-Cyclopropylfuran-2-yl)-N-[4-[(6,7-dimethoxy-1,5-naphthyridin-4-yl)oxy]-3-fluorophenyl]-4-hydroxy-2,6-dimethylpyridine-3-carboxamide], the IC50 in assay [1] and in assay [2] was at most 100 nM each time.

`COc1cc2nccc(Oc3ccc(NC(=O)c4cnc(C)c(-c5cc(C)nn5C)c4O)cc3F)c2nc1OC` [Compound 136, N-[4-[(6,7-Dimethoxy-1,5-naphthyridin-4-yl)oxy]-3-fluorophenyl]-5-(2,5-dimethylpyrazol-3-yl)-4-hydroxy-6-methylpyridine-3-carboxamide]: the half-inhibitory concentration (IC50) in assay [1] is at most 100 nM; in assay [2] it was 100 to 300 nM.

For `COc1cc2nccc(Oc3ccc(NC(=O)c4c(C)nc(C)c(-c5ccnn5C)c4O)cc3F)c2nc1OC` [Compound 108, N-[4-[(6,7-Dimethoxy-1,5-naphthyridin-4-yl)oxy]-3-fluoro-phenyl]-4-hydroxy-2,6-dimethyl-5-(2-methylpyrazol-3-yl) pyridine-3-carboxamide], the IC50 in assay [1] and in assay [2] was at most 100 nM in each case.

Take `COc1cnc2c(Oc3ccc(NC(=O)c4cn(CCF)c(C)c(-c5cccs5)c4=O)cc3F)ccnc2c1` [Compound 331, 1-(2-Fluoroethyl)-N-[3-fluoro-4-[(7-methoxy-1,5-naphthyridin-4-yl)oxy]phenyl]-6-methyl-4-oxo-5-thiophen-2-ylpyridine-3-carboxamide]: the half-inhibitory concentration (IC50) in assay [1] and in assay [2] was at most 100 nM throughout.

As to `COc1ccc2nccc(Oc3ccc(NC(=O)c4cnc(C)c(-c5cccs5)c4O)cc3F)c2n1` [Compound 128, N-[3-Fluoro-4-[(6-methoxy-1,5-naphthyridin-4-yl)oxy]phenyl]-4-hydroxy-6-methyl-5-thiophen-2-ylpyridine-3-carboxamide], the IC50 in assay [1] and in assay [2] was at most 100 nM each time.

On to `COc1cnc2c(Oc3ccc(NC(=O)c4c(C)n(C)c(C)c(-c5cccs5)c4=O)cc3F)ccnc2c1` [Compound 166, N-[3-Fluoro-4-[(7-methoxy-1,5-naphthyridin-4-yl)oxy]phenyl]-1,2,6-trimethyl-4-oxo-5-thiophen-2-ylpyridine-3-carboxamide], for which the half-inhibitory concentration (IC50) in assay [1] and in assay [2] was at most 100 nM throughout.

`COc1cc2nccc(Oc3ccc(NC(=O)c4cnc(C)c(-c5ccc(C(C)C)o5)c4O)cc3F)c2nc1OC` [Compound 154, N-[4-[(6,7-Dimethoxy-1,5-naphthyridin-4-yl)oxy]-3-fluorophenyl]-4-hydroxy-6-methyl-5-(5-propan-2-ylfuran-2-yl)pyridine-3-carboxamide]: the IC50 in assay [1] and in assay [2] was at most 100 nM each time.
